Two compounds from patent publication US20090131513A1, “ANTI-INFLAMMATORY MODALITIES” (Novogen Research Pty Ltd., priority 2005, published 2009) can be followed below.

Data set [1] can be described thus: Anti inflammatory activity (test not specified).
The target in data set [2] is T1, TX synthase (TXS) (Homo sapiens, UniProt P24557).
T1 construct: endogenous in cells; host or cells: undifferentiated U937 cells
T1 sequence (P24557 1-533): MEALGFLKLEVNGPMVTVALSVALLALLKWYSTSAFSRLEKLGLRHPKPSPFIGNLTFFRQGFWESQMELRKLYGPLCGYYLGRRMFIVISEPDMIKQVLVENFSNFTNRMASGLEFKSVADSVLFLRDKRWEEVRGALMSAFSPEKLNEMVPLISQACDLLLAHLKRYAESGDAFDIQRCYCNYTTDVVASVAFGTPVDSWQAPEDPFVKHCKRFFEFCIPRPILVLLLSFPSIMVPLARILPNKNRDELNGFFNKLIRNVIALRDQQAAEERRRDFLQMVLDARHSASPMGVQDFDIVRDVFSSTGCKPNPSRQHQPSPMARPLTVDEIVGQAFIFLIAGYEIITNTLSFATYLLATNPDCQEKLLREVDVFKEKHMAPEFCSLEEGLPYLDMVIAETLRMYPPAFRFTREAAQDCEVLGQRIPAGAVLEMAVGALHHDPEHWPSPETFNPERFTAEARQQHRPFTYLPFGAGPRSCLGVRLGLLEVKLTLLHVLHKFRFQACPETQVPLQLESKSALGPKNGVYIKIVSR
Briefly: TXB2 synthesis following addition of exogenous PGH2 to U937 cells. The settings on record: 1, 10, 100 μM, undifferentiated U937 cells, PGH2 5 μM. Type of data set: cell-based. On the procedure: To examine effects of test compounds directly on TX synthase (TXS), a different assay system was used. Whereas arachidonic acid (AA) is the substrate for COX, PGH2 is the substrate for TX synthase. To examine directly the effect of these compounds on TXS, exogenous ? elow:
Test compounds at 0 μM, 1 μM, 10 μM and 100 μM (in DMSO) were incubated with undifferentiated U937 cells (6×10^6/ml) for 30 min at 37° C., after which PGH2 (5 μM) was added. After incubation for 10 min, the reaction was terminated by centrifugation and the supernatants were collected and TXB2 production was measured in triplicate by RIA. ANOVA followed by Newman-Keuls multiple comparisons test was used to examine differences between doses and the control values. A statistical significance level of 0.05 was used and differences from control values are indicated by an asterisk (*).

In data set [3] the test system is NFκB promoter activity. Briefly: Inhibition of NFκB promoter activity (β-lactamase reporter) in TNFα-stimulated THP-1 cells. Type of data set: cell-based, human. As to conditions: 5 h. On the procedure: Human macrophage THP-1 cells, modified to include the β-lactamase reporter gene, were seeded into wells of a 96-well plate (50×10^3 cells/well) in the presence of RPMI 1640 medium (70 μl). TNFα (7.5 ng/ml) and human sera (final concentration of 20%) were added to each well. Plates were incubated for 5 h at 37° C. to allow for NFkB-stimulated β-lactamase production. LiveBLAzer™ FRET B/G Substrate (CCF4-AM) was then added to assay for β-lactamase activity. Once CCFA-AM enters a cell, it is converted to negatively charged CCF4 by endogenous esterases. Excitation of this substrate at 409 nm leads to efficient FRET between the coumarin and fluorescein moieties, resulting in a green fluorescence detectable at 530 nm. The presence of β-lactamase leads to cleavage of CCF4 and results in a loss of FRET, resulting in a robust blue fluorescent signal detectable at 460 nm. Thus, activity of beta-lactamase (a marker of NFkB-promoter activity) is measured as a product to substrate ratio (blue/green fluorescence ratio: 460 nm/530 nm).

In data set [4] the test system is contractile response of the aortic ring to noradrenaline. The data set is described as follows: Vasodilatory activity in the rat aortic ring assay. Details: species or system rat (Sprague-Dawley). The settings on record: test compound 1 μg/ml. The procedure: The vasodilatory capacity of test compounds was examined ex vivo using the rat aortic ring assay.
Male Sprague-Dawley rats (250±50 g) were euthanized with 80% CO2 and 20% O2. The thoracic aorta was excised and quickly mounted in organ-baths as described (Chin-Dusting et al. 2001). Full concentration-contractile curves were obtained to noradrenaline ([…]) with and without test compounds delivered at a concentration of 1 μg/ml. Experiments were repeated in n=5 different rings from 5 different animals. Only one compound at any one concentration was tested on any one ring from any one animal. Sigmoidal dose response curves were fitted for the data and the logEC50 calculated (Prism 4, GraphPad Software). The difference in these values between the presence and absence of test compound was calculated using a two-tailed paired t test. The effects of β-oestrodiol and vehicle alone were examined as a positive and negative control respectively.

Data set [5] deals with female BALB/c mice. Briefly: Absence of gastrointestinal toxicity, gavage for 10 days. The settings on record: 20 mg/kg daily by gavage for 10 days. Type of data set: in vivo. The procedure:
Compound 2 at 5 mg/kg (n=3) or vehicle (PEG 400:PBS1:1; n=2) was administered via gavage to female BALB/c mice for 10 days. […] Histology of cecum and colon were normal.
The diastereoisomeric mixture of Compounds 3a and 3b in PEG 400:PBS1:1 was administered to 7 week old female BALB/c mice (n=8) by gavage at 20 mg/kg daily for 10 days. There was no vehicle control group for comparison.
Compound 4 at 5 mg/kg (n=3) or vehicle (n=2, PEG:PBS 1:1) was administered via gavage to female BALB/c mice for 10 days. […] Histology of cecum and colon were normal.

On to `Oc1ccc(C23COc4cc(O)ccc4C2O3)cc1` (stereo not drawn) [3,4-epoxy-4′,7-dihydroxyisoflavan], for which, in data set [1], the anti inflammatory activity result was “shows anti inflammatory activity”.
For `Cc1c(O)ccc2c1OCC(c1ccc(O)cc1)C2O` (stereo not drawn) [Compound 3], in data set [2], the “thromboxane synthase inhibition (TXB2 synthesis after exogenous PGH2), selectivity in words” value is on record as “less specific”. The “inhibition of NFκB compared to vehicle control” value in data set [3] was “significantly (p<0.001) inhibited”. In data set [4], the “contractile response (logEC50) of the aortic ring to noradrenaline compared with vehicle” value is reported as “significantly inhibited”. In data set [5], the “mean increase in body weight over the 10 days, of the starting weight” value was found to be 5%. In addition, the “body weight, in words” value in data set [5] (no vehicle group) was “all mice maintained body weight”.
